Source: the supplement of paper PMC11451515

Assays:
Conditions in all cases: 48 h
[1] = test system: NOMO1; test: cell viability relative to DMSO control; higher = less cytotoxic
Method in brief: (§1)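 Before seeding, each leukemia line was adapted for at least four passages in each medium. NOMO1 or SEM cells (500 cells/well) and P12-Ichikawa cells (1000 cells/well) went into 1536-well plates at 5 μl, then received library compounds in DMSO by pin dosing across 11 threefold concentrations, 47 μM to 0.79 nM. Readout was CellTiter-Glo One luminescence after 48 h at 37°C, and viability is given as a per-plate percentage of DMSO wells, with cell-free wells as background.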

[2] = test system: P12-Ichikawa; test: as above
Method in brief: as §1

[3] = test system: SEM cells; test: as above
Method in brief: as §1

[4] = test system: NOMO1; test: AUC of viability dose-response curve (% viability x log10 dose units); higher = less sensitive
Method in brief: (§2)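 Leukemia cells adapted to each medium were seeded in 1536-well plates (500 or 1000 cells/well) and given library compounds in DMSO for 48 h at 37°C. The 11 threefold doses spanned 47 μM to 0.79 nM, and CellTiter-Glo One luminescence was normalised per plate to DMSO and cell-free wells before four-parameter log-logistic fitting on log10 dose. Area under the curve was integrated with the trapezoidal rule, scaling curves above full viability and removing curves that failed quality control.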

[5] = test system: P12-Ichikawa; test: as above
Method in brief: as §2

[6] = test system: SEM cells; test: as above
Method in brief: as §2

[7] = HPLM + 10% dialyzed FBS, 0.000781 µM
[8] = HPLM + 10% dialyzed FBS, 0.00234 µM
[9] = HPLM + 10% dialyzed FBS, 0.00702 µM
[10] = HPLM + 10% dialyzed FBS, 0.0211 µM
[11] = HPLM + 10% dialyzed FBS, 0.0632 µM
[12] = HPLM + 10% dialyzed FBS, 0.19 µM
[13] = HPLM + 10% dialyzed FBS, 0.569 µM
[14] = HPLM + 10% dialyzed FBS, 1.71 µM
[15] = HPLM + 10% dialyzed FBS, 5.12 µM
[16] = HPLM + 10% dialyzed FBS, 15.4 µM
[17] = HPLM + 10% dialyzed FBS, 46.1 µM
[18] = RPMI 5 mM glucose + 10% FBS, 0.000781 µM
[19] = RPMI 5 mM glucose + 10% FBS, 0.00234 µM
[20] = RPMI 5 mM glucose + 10% FBS, 0.00702 µM
[21] = RPMI 5 mM glucose + 10% FBS, 0.0211 µM
[22] = RPMI 5 mM glucose + 10% FBS, 0.0632 µM
[23] = RPMI 5 mM glucose + 10% FBS, 0.19 µM
[24] = RPMI 5 mM glucose + 10% FBS, 0.569 µM
[25] = RPMI 5 mM glucose + 10% FBS, 1.71 µM
[26] = RPMI 5 mM glucose + 10% FBS, 5.12 µM
[27] = RPMI 5 mM glucose + 10% FBS, 15.4 µM
[28] = RPMI 5 mM glucose + 10% FBS, 46.1 µM
[29] = RPMI 5 mM glucose + 10% dialyzed FBS, 0.000781 µM
[30] = RPMI 5 mM glucose + 10% dialyzed FBS, 0.00234 µM
[31] = RPMI 5 mM glucose + 10% dialyzed FBS, 0.00702 µM
[32] = RPMI 5 mM glucose + 10% dialyzed FBS, 0.0211 µM
[33] = RPMI 5 mM glucose + 10% dialyzed FBS, 0.0632 µM
[34] = RPMI 5 mM glucose + 10% dialyzed FBS, 0.19 µM
[35] = RPMI 5 mM glucose + 10% dialyzed FBS, 0.569 µM
[36] = RPMI 5 mM glucose + 10% dialyzed FBS, 1.71 µM
[37] = RPMI 5 mM glucose + 10% dialyzed FBS, 5.12 µM
[38] = RPMI 5 mM glucose + 10% dialyzed FBS, 15.4 µM
[39] = RPMI 5 mM glucose + 10% dialyzed FBS, 46.1 µM
[40] = RPMI 5 mM glucose + 10% dialyzed FBS

CC[C@H](CO)Nc1nc(NCc2ccccc2)c2ncn(C(C)C)c2n1
cell viability [1, 7]: 98.6% | cell viability [1, 8]: 95.1% | cell viability [1, 9]: 98.5% | cell viability [1, 10]: 99.4% | cell viability [1, 11]: 89.8% | cell viability [1, 12]: 88% | cell viability [1, 13]: 89.4% | cell viability [1, 14]: 82.9% | cell viability [1, 15]: 85.7% | cell viability [1, 16]: 96.4% | cell viability [1, 17]: 54.2% | cell viability [1, 18]: 82.5% | cell viability [1, 19]: 93.9% | cell viability [1, 20]: 93.9% | cell viability [1, 21]: 83.7% | cell viability [1, 22]: 84.3% | cell viability [1, 23]: 88.3% | cell viability [1, 24]: 87.4% | cell viability [1, 25]: 79.5% | cell viability [1, 26]: 84.2% | cell viability [1, 27]: 77% | cell viability [1, 28]: 76.6% | cell viability [1, 29]: 96.7% | cell viability [1, 30]: 96.3% | cell viability [1, 31]: 85.2% | cell viability [1, 32]: 90.9% | cell viability [1, 33]: 94.1% | cell viability [1, 34]: 86.2% | cell viability [1, 35]: 95.2% | cell viability [1, 36]: 90.1% | cell viability [1, 37]: 94.2% | cell viability [1, 38]: 77.3% | cell viability [1, 39]: 70.3% | cell viability [2, 7]: 85.4% | cell viability [2, 8]: 93.9% | cell viability [2, 9]: 95.1% | cell viability [2, 10]: 91.7% | cell viability [2, 11]: 94.8% | cell viability [2, 12]: 95.1% | cell viability [2, 13]: 93.1% | cell viability [2, 14]: 86.4% | cell viability [2, 15]: 91.6% | cell viability [2, 16]: 85.2% | cell viability [2, 17]: 79.5% | cell viability [2, 18]: 91.2% | cell viability [2, 19]: 93.1% | cell viability [2, 20]: 93.2% | cell viability [2, 21]: 92.9% | cell viability [2, 22]: 98.1% | cell viability [2, 23]: 95.2% | cell viability [2, 24]: 95.9% | cell viability [2, 25]: 82.8% | cell viability [2, 26]: 86.4% | cell viability [2, 27]: 77.6% | cell viability [2, 28]: 78.2% | cell viability [2, 29]: 91.2% | cell viability [2, 30]: 94.4% | cell viability [2, 31]: 95.5% | cell viability [2, 32]: 83.9% | cell viability [2, 33]: 89.5% | cell viability [2, 34]: 94.3% | cell viability [2, 35]: 92% | cell viability [2, 36]: 88.7% | cell viability [2, 37]: 87.3% | cell viability [2, 38]: 86.6% | cell viability [2, 39]: 82% | cell viability [3, 7]: 89.9% | cell viability [3, 8]: 96.2% | cell viability [3, 9]: 95.3% | cell viability [3, 10]: 86.9% | cell viability [3, 11]: 93.7% | cell viability [3, 12]: 96.8% | cell viability [3, 13]: 83.7% | cell viability [3, 14]: 99.8% | cell viability [3, 15]: 94% | cell viability [3, 16]: 98.1% | cell viability [3, 17]: 58.7% | cell viability [3, 18]: 114% | cell viability [3, 19]: 97.4% | cell viability [3, 20]: 128% | cell viability [3, 21]: 111% | cell viability [3, 22]: 112% | cell viability [3, 23]: 126% | cell viability [3, 24]: 126% | cell viability [3, 25]: 99.9% | cell viability [3, 26]: 108% | cell viability [3, 27]: 120% | cell viability [3, 28]: 63.6% | cell viability [3, 29]: 102% | cell viability [3, 30]: 102% | cell viability [3, 31]: 88.6% | cell viability [3, 32]: 88.2% | cell viability [3, 33]: 90.8% | cell viability [3, 34]: 95.6% | cell viability [3, 35]: 98% | cell viability [3, 36]: 97% | cell viability [3, 37]: 102% | cell viability [3, 38]: 88.1% | cell viability [3, 39]: 35.3% | AUC of viability dose-response curve ([4]; HPLM + 10% dialyzed FBS): 432 | AUC of viability dose-response curve ([4]; RPMI 5 mM glucose + 10% FBS): 405 | AUC of viability dose-response curve [4, 40]: 427 | AUC of viability dose-response curve ([5]; HPLM + 10% dialyzed FBS): 432 | AUC of viability dose-response curve ([5]; RPMI 5 mM glucose + 10% FBS): 428 | AUC of viability dose-response curve [5, 40]: 428 | AUC of viability dose-response curve ([6]; HPLM + 10% dialyzed FBS): 438 | AUC of viability dose-response curve ([6]; RPMI 5 mM glucose + 10% FBS): 467 | AUC of viability dose-response curve [6, 40]: 440

Cc1nnc(C(C)C)n1[C@@H]1C[C@H]2CC[C@@H](C1)N2CC[C@H](NC(=O)C1CCC(F)(F)CC1)c1ccccc1
cell viability [1, 7]: 70.8% | cell viability [1, 8]: 93.7% | cell viability [1, 9]: 112% | cell viability [1, 10]: 93.1% | cell viability [1, 11]: 98.7% | cell viability [1, 12]: 103% | cell viability [1, 13]: 107% | cell viability [1, 14]: 104% | cell viability [1, 15]: 103% | cell viability [1, 16]: 84.5% | cell viability [1, 17]: 25.5% | cell viability [1, 18]: 83.6% | cell viability [1, 19]: 82.9% | cell viability [1, 20]: 95.2% | cell viability [1, 21]: 91.3% | cell viability [1, 22]: 84.5% | cell viability [1, 23]: 99.9% | cell viability [1, 24]: 92% | cell viability [1, 25]: 88.5% | cell viability [1, 26]: 84.3% | cell viability [1, 27]: 91.3% | cell viability [1, 28]: 26.3% | cell viability [1, 29]: 68.3% | cell viability [1, 30]: 93.2% | cell viability [1, 31]: 82.6% | cell viability [1, 32]: 84.8% | cell viability [1, 33]: 93.2% | cell viability [1, 34]: 95.5% | cell viability [1, 35]: 95.1% | cell viability [1, 36]: 90.3% | cell viability [1, 37]: 84.4% | cell viability [1, 38]: 67.1% | cell viability [1, 39]: 29.9% | cell viability [2, 7]: 88.3% | cell viability [2, 8]: 99.8% | cell viability [2, 9]: 107% | cell viability [2, 10]: 111% | cell viability [2, 11]: 105% | cell viability [2, 12]: 102% | cell viability [2, 13]: 113% | cell viability [2, 14]: 110% | cell viability [2, 15]: 101% | cell viability [2, 16]: 89.1% | cell viability [2, 17]: 63.8% | cell viability [2, 18]: 85% | cell viability [2, 19]: 90.2% | cell viability [2, 20]: 94.3% | cell viability [2, 21]: 100% | cell viability [2, 22]: 95.9% | cell viability [2, 23]: 103% | cell viability [2, 24]: 107% | cell viability [2, 25]: 99.4% | cell viability [2, 26]: 104% | cell viability [2, 27]: 92% | cell viability [2, 28]: 59.2% | cell viability [2, 29]: 71.4% | cell viability [2, 30]: 96% | cell viability [2, 31]: 89.1% | cell viability [2, 32]: 101% | cell viability [2, 33]: 94.5% | cell viability [2, 34]: 105% | cell viability [2, 35]: 97.4% | cell viability [2, 36]: 103% | cell viability [2, 37]: 101% | cell viability [2, 38]: 81.1% | cell viability [2, 39]: 48.3% | cell viability [3, 7]: 83.1% | cell viability [3, 8]: 90.9% | cell viability [3, 9]: 95.8% | cell viability [3, 10]: 95% | cell viability [3, 11]: 77.2% | cell viability [3, 12]: 98.3% | cell viability [3, 13]: 105% | cell viability [3, 14]: 98% | cell viability [3, 15]: 102% | cell viability [3, 16]: 64.9% | cell viability [3, 17]: 57.1% | cell viability [3, 18]: 78.9% | cell viability [3, 19]: 74.3% | cell viability [3, 20]: 82.2% | cell viability [3, 21]: 93.4% | cell viability [3, 22]: 86.1% | cell viability [3, 23]: 103% | cell viability [3, 24]: 84.9% | cell viability [3, 25]: 85.6% | cell viability [3, 26]: 86.1% | cell viability [3, 27]: 43.6% | cell viability [3, 28]: 38.6% | cell viability [3, 29]: 84.6% | cell viability [3, 30]: 90.5% | cell viability [3, 31]: 101% | cell viability [3, 32]: 90.1% | cell viability [3, 33]: 88.9% | cell viability [3, 34]: 103% | cell viability [3, 35]: 87.8% | cell viability [3, 36]: 103% | cell viability [3, 37]: 105% | cell viability [3, 38]: 51.8% | cell viability [3, 39]: 40.2% | AUC of viability dose-response curve ([4]; HPLM + 10% dialyzed FBS): 445 | AUC of viability dose-response curve ([4]; RPMI 5 mM glucose + 10% FBS): 411 | AUC of viability dose-response curve [4, 40]: 394 | AUC of viability dose-response curve ([5]; HPLM + 10% dialyzed FBS): 460 | AUC of viability dose-response curve ([5]; RPMI 5 mM glucose + 10% FBS): 454 | AUC of viability dose-response curve [5, 40]: 437 | AUC of viability dose-response curve ([6]; HPLM + 10% dialyzed FBS): 425 | AUC of viability dose-response curve ([6]; RPMI 5 mM glucose + 10% FBS): 379 | AUC of viability dose-response curve [6, 40]: 419
